Experimental data as given in PubChem BioAssay (NCI).
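Interpolation was linear, between the two tested concentrations surrounding the appropriate level; five concentrations were tested over 48 hours in 96-well plates. Abbreviation: GI50, concentration required for 50% inhibition of growth. TGI is the concentration that stops growth completely.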

Legend:
Test in all cases: inhibition of tumour cell growth, NCI panel, 48 h
NCI-H226 lung = test system: NCI-H226 lung
MCF7 breast = test system: MCF7 breast
UACC-62 melanoma = test system: UACC-62 melanoma
SK-MEL-5 melanoma = test system: SK-MEL-5 melanoma
SR leukemia = test system: SR leukemia
OVCAR-4 ovarian = test system: OVCAR-4 ovarian
HL-60(TB) leukemia = test system: HL-60(TB) leukemia
MALME-3M melanoma = test system: MALME-3M melanoma
UACC-257 melanoma = test system: UACC-257 melanoma
LOX IMVI melanoma = test system: LOX IMVI melanoma

SMILES | GI50 (NCI-H226 lung) | TGI (NCI-H226 lung) | GI50 (MCF7 breast) | TGI (MCF7 breast) | GI50 (UACC-62 melanoma) | TGI (UACC-62 melanoma) | GI50 (SK-MEL-5 melanoma) | TGI (SK-MEL-5 melanoma) | GI50 (SR leukemia) | TGI (SR leukemia) | GI50 (OVCAR-4 ovarian) | TGI (OVCAR-4 ovarian) | GI50 (HL-60(TB) leukemia) | TGI (HL-60(TB) leukemia) | GI50 (MALME-3M melanoma) | TGI (MALME-3M melanoma) | GI50 (UACC-257 melanoma) | TGI (UACC-257 melanoma) | GI50 (LOX IMVI melanoma) | TGI (LOX IMVI melanoma)
c1ccc(-c2nc3ccccc3[nH]2)c(OCCCCCOc2ccccc2-c2nc3ccccc3[nH]2)c1 | 20 µM | 47.4 µM | 2.3 µM | 7.51 µM | 12.8 µM | 27.6 µM | 6.07 µM | 19.5 µM | 2.27 µM | 13.1 µM | 2.92 µM | 8.97 µM | 2.57 µM | 7.76 µM | 12.3 µM | 44 µM | 17.9 µM | 65.3 µM | 12.9 µM | 29.8 µM
Cn1cc(C2=C(c3cccc([N+](=O)[O-])c3)C(=O)NC2=O)c2ccccc21 | 4.62 µM | > 19.2 µM | 3.17 µM | > 25 µM | 6.58 µM | 18.1 µM | 3.63 µM | 8.48 µM | 7 µM | > 25 µM | 6.06 µM | > 25 µM | 7.14 µM | 19.1 µM | 13.6 µM | > 25 µM | 9.99 µM | > 22.7 µM | 3.94 µM | > 25 µM
CN1CCC(C(=O)Nc2n[nH]c3nnc(-c4ccccc4)cc23)CC1 | > 22.3 µM | > 25 µM | 10.2 µM | > 25 µM | > 25 µM | > 25 µM | 14.6 µM | > 25 µM | > 25 µM | > 25 µM | > 25 µM | > 25 µM | > 25 µM | > 25 µM | > 25 µM | > 25 µM | > 25 µM | > 25 µM | 20.3 µM | > 25 µM
COc1ccc(-c2nc3sccn3c2/C=C/C(=O)c2cc(OC)c(OC)c(OC)c2)cc1 | 2.95 µM | > 35 µM | 1.85 µM | > 100 µM | 2.08 µM | 9.15 µM | 1.42 µM | 2.98 µM | 2.41 µM | > 28.2 µM | 3.21 µM | > 100 µM | 3.33 µM | 82.3 µM | 4.39 µM | > 100 µM | 15.2 µM | 78.7 µM | 2.11 µM | 6.59 µM
CCCC/C=C1/CCC(CN(C)C)C1=O (centres undefined) |  | 22.8 µM |  | 4.34 µM |  | 4.96 µM |  | 22 µM |  | 2.99 µM |  | 8.27 µM |  | 4.63 µM |  | 4.07 µM |  | 5.26 µM |  | 2.91 µM
CC(=O)OCCc1cc2ccccc2oc1=O |  | > 100 µM |  | > 100 µM |  | > 100 µM |  | > 100 µM |  | > 100 µM |  | > 100 µM |  | > 100 µM |  | > 100 µM |  | > 100 µM |  | > 100 µM
O=C([CH-]C(=O)c1ccccc1)c1ccccc1.[CH2-]C.[CH2-]C.[Tl+3] | 0.0266 µM | 2.38 µM | 7.73 µM | > 100 µM | 20.8 µM | 87.6 µM | 16.5 µM | 50.1 µM | 6.35 µM | 50.1 µM | 16.8 µM | > 100 µM | 2.99 µM | 21.6 µM | 21.3 µM | > 76.7 µM | 45.6 µM | > 100 µM | 10.4 µM | 54.7 µM
O=C(NCCNC1=CC(=O)c2nc3ccccc3c3ccnc1c23)c1cnccn1 | 90.7 µM | > 100 µM | 21.4 µM | > 100 µM | 73.7 µM | > 100 µM | 54.7 µM | > 100 µM | 9.26 µM | > 100 µM | 83.7 µM | > 100 µM | 42.8 µM | > 100 µM | 18.2 µM | > 100 µM | 49.3 µM | > 100 µM | 33.9 µM | > 100 µM
CN(Cc1cnc2nc(N)nc(N)c2n1)c1c(Cl)cc(C(=O)NC(CCC(=O)O)C(=O)O)cc1Br (centres undefined) | 0.0237 µM | > 100 µM | < 0.01 µM | > 100 µM | < 0.0118 µM | > 100 µM | 0.0313 µM | > 100 µM | < 0.01 µM | > 100 µM | > 100 µM | > 100 µM | < 0.01 µM | > 100 µM | 0.0322 µM | > 100 µM |  | > 100 µM | < 0.01 µM | > 100 µM
NCC[PH+](c1ccccc1)c1ccccc1.NCC[PH+](c1ccccc1)c1ccccc1.[Cl-].[Pt+4] | > 100 µM | > 100 µM | > 100 µM | > 100 µM | > 86.5 µM | > 100 µM | > 100 µM | > 100 µM | 29.7 µM | > 100 µM | > 100 µM | > 100 µM | 1.8 µM | > 57.8 µM | > 100 µM | > 100 µM | > 100 µM | > 100 µM | > 100 µM | > 100 µM
CCCCCCC1CCCCN1C(c1ccccc1)C(O)c1ccccc1 (centres undefined) | 7.74 µM | 21.9 µM | 3.78 µM | 14.8 µM | 11.7 µM | 24.8 µM | 2.48 µM | 5.88 µM | 2.94 µM | 8.54 µM | 7.98 µM | 21.7 µM | 3.01 µM | 7.01 µM | 5.37 µM | 19.7 µM | 4.79 µM | 18.1 µM | 3.04 µM | 12.4 µM
Cc1nc2sc(C(=O)Nc3cccc(Cl)c3)c(N)c2cc1C(O)c1ccccc1 (centres undefined) | 3.53 µM | 26.6 µM | 0.373 µM | 16.9 µM | 0.757 µM | 16 µM | 0.622 µM | 2.2 µM | 0.414 µM | > 100 µM | 4.64 µM | 31.2 µM | 0.401 µM | 6.67 µM | 0.722 µM | 20.4 µM | 1.39 µM | 22.2 µM | 0.687 µM | 22.5 µM
